Measurements published in ChEMBL document CHEMBL1201862, “PubChem BioAssay data set” (2004).
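In this assay, cells in 96-well plates receive the compound at five concentrations for 48 hours. Endpoints are linearly interpolated between the surrounding concentrations. Abbreviation: GI50, concentration required for 50% inhibition of growth.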 Active and inactive are the calls of the source. No stated cut-off is given here; in the data, active = GI50 up to about 1.1 µM and inactive = higher.

What was measured:
Experiment in all cases: growth of human tumour cells (NCI), 48 h
UACC-62 = tested on: UACC-62
DLD-1 = tested on: DLD-1
NCI-H522 = tested on: NCI-H522
SF-268 = tested on: SF-268
K562 = tested on: K562
UACC-257 = tested on: UACC-257
NCI-H460 = tested on: NCI-H460
HT-29 = tested on: HT-29
HOP-92 = tested on: HOP-92
SF-295 = tested on: SF-295
Malme-3M = tested on: Malme-3M
HCT-15 = tested on: HCT-15
SK-MEL-2 = tested on: SK-MEL-2
CCRF-CEM = tested on: CCRF-CEM
A549 = tested on: A549
OVCAR-4 = tested on: OVCAR-4
OVCAR-5 = tested on: OVCAR-5
ACHN = tested on: ACHN
M19-MEL = tested on: M19-MEL
RXF 393 = tested on: RXF 393

Row | Structure (SMILES) | GI50 (UACC-62) | GI50 (DLD-1) | GI50 (NCI-H522) | GI50 (SF-268) | GI50 (K562) | GI50 (UACC-257) | GI50 (NCI-H460) | GI50 (HT-29) | GI50 (HOP-92) | GI50 (SF-295) | GI50 (Malme-3M) | GI50 (HCT-15) | GI50 (SK-MEL-2) | GI50 (CCRF-CEM) | GI50 (A549) | GI50 (OVCAR-4) | GI50 (OVCAR-5) | GI50 (ACHN) | GI50 (M19-MEL) | GI50 (RXF 393)
1 | Cc1n(CC(=O)c2ccc([N+](=O)[O-])cc2)c2c([n+]1CC(C)C)C(=O)c1ccccc1C2=O | < 0.0334 µM (active) | < 0.0394 µM (active) | < 0.01 µM (active) | < 0.01 µM (active) | < 0.01 µM (active) | < 0.01 µM (active) | < 0.04 µM (active) | < 0.0131 µM (active) | < 0.0226 µM (active) | 0.329 µM (active) | < 0.01 µM (active) | 2.88 µM | < 0.0123 µM (active) | < 0.0172 µM (active) | < 0.0318 µM (active) | < 0.0178 µM (active) | < 0.0318 µM (active) | – | – | –
2 | Cc1nc2c(n1C)C(=O)c1nc(CBr)[nH]c(=O)c1C2=O | > 100 µM (inactive) | > 100 µM (inactive) | > 100 µM (inactive) | > 100 µM (inactive) | > 100 µM (inactive) | – | > 100 µM (inactive) | 39.4 µM (inactive) | > 100 µM (inactive) | 0.938 µM (active) | – | > 100 µM | – | > 100 µM (inactive) | > 100 µM (inactive) | – | – | > 100 µM (inactive) | > 100 µM (inactive) | > 100 µM (inactive)
3 | CCc1n[nH]c(=O)n1CC | > 100 µM (inactive) | – | > 100 µM (inactive) | > 100 µM (inactive) | > 100 µM (inactive) | > 100 µM (inactive) | > 100 µM (inactive) | > 100 µM (inactive) | > 100 µM (inactive) | > 100 µM (inactive) | > 100 µM (inactive) | > 100 µM | > 100 µM (inactive) | > 100 µM (inactive) | > 100 µM (inactive) | > 100 µM (inactive) | > 100 µM (inactive) | > 100 µM (inactive) | – | –
4 | Cc1ccc(N2Cc3c(ccc4ccccc34)OP2(=S)N2CCCC2)cc1 (stereo not given) | > 100 µM (inactive) | > 100 µM (inactive) | > 100 µM (inactive) | > 100 µM (inactive) | > 89.9 µM (inactive) | > 100 µM (inactive) | > 100 µM (inactive) | > 100 µM (inactive) | > 100 µM (inactive) | > 67.8 µM (inactive) | > 100 µM (inactive) | > 100 µM | > 100 µM (inactive) | > 100 µM (inactive) | > 100 µM (inactive) | > 100 µM (inactive) | > 100 µM (inactive) | – | > 100 µM (inactive) | > 100 µM (inactive)
5 | COc1cccc(CC2Cc3ccccc3CC(=O)N2)c1 (stereo not given) | 39.8 µM (inactive) | – | – | 46.2 µM (inactive) | 80 µM (inactive) | 29.2 µM (inactive) | 20.9 µM (inactive) | 92.7 µM (inactive) | 24.1 µM (inactive) | 34.9 µM (inactive) | – | – | 42.2 µM (inactive) | 58.3 µM (inactive) | 34.1 µM (inactive) | > 100 µM (inactive) | 11.7 µM (inactive) | 76.2 µM (inactive) | – | 26.8 µM (inactive)
6 | O=NN(CC1(O)OCC(O)C(O)C1O)C(Cc1c[nH]c2ccccc12)C(=O)O (stereo not given) | > 100 µM (inactive) | > 100 µM (inactive) | > 100 µM (inactive) | – | > 100 µM (inactive) | > 100 µM (inactive) | > 100 µM (inactive) | > 100 µM (inactive) | > 100 µM (inactive) | – | > 100 µM (inactive) | – | > 100 µM (inactive) | > 100 µM (inactive) | > 100 µM (inactive) | – | > 100 µM (inactive) | > 100 µM (inactive) | > 100 µM (inactive) | > 100 µM (inactive)
7 | c1ccc2c(NCCCCCCCCNc3cccc4ccccc34)cccc2c1 | 20.5 µM (inactive) | 34.2 µM (inactive) | 16.4 µM (inactive) | 65 µM (inactive) | 21.5 µM (inactive) | 19.8 µM (inactive) | 21.7 µM (inactive) | 32.4 µM (inactive) | 18.2 µM (inactive) | > 100 µM (inactive) | 22 µM (inactive) | 25.8 µM | 35.8 µM (inactive) | 14.6 µM (inactive) | > 100 µM (inactive) | 28.2 µM (inactive) | 46 µM (inactive) | 30 µM (inactive) | > 10 µM (inactive) | –
8 | O=S(=O)(c1ccc(I)cc1)N(c1ccccc1)S(=O)(=O)C(F)(F)C(F)(F)C(F)(F)C(F)(F)F | 25.5 µM (inactive) | – | 28.2 µM (inactive) | – | 41.6 µM (inactive) | > 100 µM (inactive) | 31.9 µM (inactive) | 22.4 µM (inactive) | 15.4 µM (inactive) | 24 µM (inactive) | 18.6 µM (inactive) | 41.2 µM | 29.2 µM (inactive) | 40.9 µM (inactive) | 31.5 µM (inactive) | 24.5 µM (inactive) | 24.9 µM (inactive) | 58.2 µM (inactive) | – | 24.8 µM (inactive)
